Assay results reported in patent US4134792A, “Specific binding assay with an enzyme modulator as a labeling substance” (Miles Laboratories, Inc., priority 1976, dated 1979).
Where two headings read alike, the source gives them in different places. One block for each molecule: values may come before it.

Columns and labels:
deoxythymidine kinase = tested on: deoxythymidine kinase; design: key: inhibitory or negative effectors are indicated by (-); stimulatory or positive effectors are indicated by (+); conditions: E. coli; cited from earlier work
[1] = tested on: deoxycytidylate aminohydrolase; design: key: inhibitory or negative effectors are indicated by (-); stimulatory or positive effectors are indicated by (+); conditions: ass spleen; cited from earlier work
carbonic anhydrase [2] = test: Direct binding assay for avidin; competitive binding assay for biotin; carbonic anhydrase esterase readout (Example 4); assay type: biochemical, human
From the text: (§1) Further dilutions were with water.
The results of reaction mixtures 2 through 9 are presented in graphical form in FIG. 2 of the drawing.

carbonic anhydrase [3] = test: Esterase activities of carbonic anhydrase as a function of acetazolamide concentration (Example 2); assay type: biochemical, human; conditions: for Hydrolysis Rate: pH 7.4, enzyme 0.013 IU
phosphorylase b = tested on: phosphorylase b; design: key: inhibitory or negative effectors are indicated by (-); stimulatory or positive effectors are indicated by (+); conditions: rabbit muscle; cited from earlier work
[4] = tested on: NAD-isocitric dehydrogenase; design: key: inhibitory or negative effectors are indicated by (-); stimulatory or positive effectors are indicated by (+); conditions: yeast; cited from earlier work
[5] = tested on: fructose-1,6-diphosphatase; design: key: inhibitory or negative effectors are indicated by (-); stimulatory or positive effectors are indicated by (+); conditions: frog muscle and rat liver; cited from earlier work
acetylcholinesterase = conditions: cited from earlier work; for inhibition of acetylcholinesterase (in words): effective analogs of listed inhibitors
glutamate dehydrogenase = tested on: glutamate dehydrogenase; design: key: inhibitory or negative effectors are indicated by (-); stimulatory or positive effectors are indicated by (+); conditions: beef liver; cited from earlier work
[6] = tested on: UDP-N-acetyl-glucosamine-2-epimerase; design: key: inhibitory or negative effectors are indicated by (-); stimulatory or positive effectors are indicated by (+); conditions: rat liver; cited from earlier work
[7] = tested on: biosynthetic L-threonine deaminase; design: key: inhibitory or negative effectors are indicated by (-); stimulatory or positive effectors are indicated by (+); conditions: E. coli K12 and yeast; cited from earlier work
homoserine dehydrogenase [8] = tested on: homoserine dehydrogenase; design: key: inhibitory or negative effectors are indicated by (-); stimulatory or positive effectors are indicated by (+); conditions: R. rubrum; cited from earlier work
[9] = tested on: aspartate transcarbamylase; design: key: inhibitory or negative effectors are indicated by (-); stimulatory or positive effectors are indicated by (+); conditions: E. coli; cited from earlier work
homoserine dehydrogenase [10] = tested on: homoserine dehydrogenase; design: key: inhibitory or negative effectors are indicated by (-); stimulatory or positive effectors are indicated by (+); conditions: E. coli; cited from earlier work
threonine aspartokinase = tested on: threonine aspartokinase; design: key: inhibitory or negative effectors are indicated by (-); stimulatory or positive effectors are indicated by (+); conditions: E. coli; cited from earlier work
L-threonine deaminase = tested on: L-threonine deaminase; design: key: inhibitory or negative effectors are indicated by (-); stimulatory or positive effectors are indicated by (+); conditions: C. tetanomorphum; cited from earlier work
carbonic anhydrase [11] = test: Competitive binding assay for dinitrophenyl (DNP) derivatives; carbonic anhydrase esterase readout (Example 5); assay type: biochemical, human; conditions: for effect on the carbonic anhydrase reaction (in words): Table 4; for effect of antibody to DNP on inhibition (in words): presence of antibody to DNP
Description: as §1, §1
(4) Antibody to Dinitrophenyl (DNP) Reagent - Antisera raised against DNP was chromatographed at 4° C. on a 5 × 70 cm column of Sephadex G-200 (Pharmacia AB, Uppsala, Sweden) with 0.1 M Tris-HCl buffer, pH 8.2, containing 1 M sodium chloride.

lysine aspartokinase = tested on: lysine aspartokinase; design: key: inhibitory or negative effectors are indicated by (-); stimulatory or positive effectors are indicated by (+); conditions: E. coli; cited from earlier work
[12] = tested on: nicotinamide adenine dinucleotide (NAD)-isocitric dehydrogenase; design: key: inhibitory or negative effectors are indicated by (-); stimulatory or positive effectors are indicated by (+); conditions: N. crassa; cited from earlier work
phosphofructokinase = conditions: guinea pig heart; cited from earlier work
acetolactate synthetase = tested on: acetolactate synthetase; design: key: inhibitory or negative effectors are indicated by (-); stimulatory or positive effectors are indicated by (+); conditions: E. coli; cited from earlier work
uricase = conditions: approximation; competitive inhibitor; read-out: inhibitor constant (Ki); cited from earlier work
[13] = tested on: L-glutamine-D-fructose-6-phosphate transaminase; design: key: inhibitory or negative effectors are indicated by (-); stimulatory or positive effectors are indicated by (+); conditions: rat liver; cited from earlier work

Molecule: Nc1ccn([C@H]2C[C@H](O)[C@@H](COP(=O)(O)OP(=O)(O)O)O2)c(=O)n1 [dCDP, deoxycytosine diphosphate]
allosteric effector: inhibitory (-) or stimulatory (+) (deoxythymidine kinase): +

Molecule: Cc1cn([C@H]2C[C@H](O)[C@@H](COP(=O)(O)OP(=O)(O)OP(=O)(O)O)O2)c(=O)[nH]c1=O [dTTP, deoxythymidine triphosphate]
allosteric effector: inhibitory (-) or stimulatory (+) [1]: -
allosteric effector: inhibitory (-) or stimulatory (+) (deoxythymidine kinase): -

effect of avidin on inhibition by acetazolamide (in words) (carbonic anhydrase [3]; Table 1): no significant effect on such inhibition
Hydrolysis Rate (carbonic anhydrase [3]; avidin 0.105 units/ml, acetazolamide 0.000 μM): 0.106 ΔOD348 /min/ml
Molecule: Avidin: Lyophilized avidin (Sigma Chemical Co., St. Louis, Mo.)
relation of rate of enzymatic hydrolysis to avidin (in words) (carbonic anhydrase [2]; constant level of biotin-modulator conjugate, mixtures 2-9): directly related to the amount of avidin present

Molecule: Nc1ncnc2c1ncn2[C@@H]1O[C@H](COP(=O)(O)O)[C@@H](O)[C@H]1O [5'-AMP]
allosteric effector: inhibitory (-) or stimulatory (+) (phosphorylase b): +
allosteric effector: inhibitory (-) or stimulatory (+) [4]: +
allosteric effector: inhibitory (-) or stimulatory (+) [5]: -

Molecule: C[N+](C)(C)c1ccccc1 [phenyl trimethylammonium ion]
Ki (acetylcholinesterase; approximation, competitive inhibitor, read-out: inhibitor constant (Ki)): ~1000 nM

Molecule: CC(C)C[C@H](N)C(=O)O [leucine]
allosteric effector: inhibitory (-) or stimulatory (+) (glutamate dehydrogenase): +

Molecule: CC(=O)N[C@H]1[C@H]([C@H](O)[C@H](O)CO)OC(OP(=O)(O)OC[C@H]2O[C@@H](n3ccc(N)nc3=O)[C@H](O)[C@@H]2O)(C(=O)O)C[C@@H]1O (stereo partly shown) [cytosine monophosphate (CMP)-N-acetyl-neuraminic acid]
allosteric effector: inhibitory (-) or stimulatory (+) [6]: -

Molecule: CC[C@H](C)[C@H](N)C(=O)O [L-isoleucine]
allosteric effector: inhibitory (-) or stimulatory (+) [7]: -
allosteric effector: inhibitory (-) or stimulatory (+) (homoserine dehydrogenase [8]): +

Molecule: Nc1ccn([C@@H]2O[C@H](COP(=O)(O)OP(=O)(O)OP(=O)(O)O)[C@@H](O)[C@H]2O)c(=O)n1 [CTP, cytosine triphosphate]
allosteric effector: inhibitory (-) or stimulatory (+) [9]: -

Molecule: C[C@@H](O)[C@H](N)C(=O)O [L-threonine]
allosteric effector: inhibitory (-) or stimulatory (+) (homoserine dehydrogenase [10]): -
allosteric effector: inhibitory (-) or stimulatory (+) (threonine aspartokinase): -
allosteric effector: inhibitory (-) or stimulatory (+) (homoserine dehydrogenase [8]): -

Molecule: Nc1ncnc2c1ncn2[C@@H]1O[C@H](COP(=O)(O)OP(=O)(O)O)[C@@H](O)[C@H]1O [ADP, addenosine diphosphate]
allosteric effector: inhibitory (-) or stimulatory (+) (L-threonine deaminase): +
allosteric effector: inhibitory (-) or stimulatory (+) (glutamate dehydrogenase): +

inhibition of carbonic anhydrase (in words) (carbonic anhydrase [3]; Table 1): inhibited the enzyme carbonic anhydrase
Hydrolysis Rate (carbonic anhydrase [3]; acetazolamide 0.144 μM with avidin 0.105 units/ml): 0.089 ΔOD348 /min/ml
Hydrolysis Rate (carbonic anhydrase [3]; acetazolamide 0.144 μM, no avidin): 0.088 ΔOD348 /min/ml
Hydrolysis Rate (carbonic anhydrase [3]; acetazolamide 0.288 μM, no avidin): 0.047 ΔOD348 /min/ml
Molecule: CC(=O)Nc1nnc(S(N)(=O)=O)s1 [Acetazolamide, 2-Acetylamino-1,3,4-thiadiazole-5-sulfonamide]
effect on the carbonic anhydrase reaction (in words) (carbonic anhydrase [11]): inhibited the carbonic anhydrase reaction
Rate of Hydrolysis (carbonic anhydrase [11]; acetazolamide 0.216 μM with antibody to DNP 100 .infin.l/ml, mixture 3): 0.091 Increase in Absorbance per min at 348 nm
Rate of Hydrolysis (carbonic anhydrase [11]; acetazolamide 0.216 μM, no antibody, mixture 5): 0.088 Increase in Absorbance per min at 348 nm
effect of antibody to DNP on inhibition (in words) (carbonic anhydrase [11]): substantially unaffected by the presence of antibody to DNP

Molecule: C[N+](C)(C)c1ccc(N)cc1 [p-aminophenyl trimethylammonium ion]
inhibition of acetylcholinesterase (in words) (acetylcholinesterase): inhibited

Molecule: Nc1ccn([C@H]2C[C@H](O)[C@@H](COP(=O)(O)OP(=O)(O)OP(=O)(O)O)O2)c(=O)n1 [dCTP, deoxycytosine triphosphate]
allosteric effector: inhibitory (-) or stimulatory (+) [1]: +

Molecule: NCCCC[C@H](N)C(=O)O [L-lysine]
allosteric effector: inhibitory (-) or stimulatory (+) (lysine aspartokinase): -

Molecule: O=C(O)CCCC[C@@H]1SC[C@@H]2NC(=O)N[C@@H]21 [biotin]
relation of rate of hydrolysis to biotin (in words) (carbonic anhydrase [2]; mixtures 8, 10 and 11): inversely related to the amount present

Molecule: Nc1nc2c(ncn2[C@@H]2O[C@H](COP(=O)(O)OP(=O)(O)OP(=O)(O)O)[C@@H](O)[C@H]2O)c(=O)[nH]1 [GTP, guanosine triphosphate]
allosteric effector: inhibitory (-) or stimulatory (+) (glutamate dehydrogenase): -

Molecule: O=C(O)CC(O)(CC(=O)O)C(=O)O [citrate]
allosteric effector: inhibitory (-) or stimulatory (+) [12]: +

Molecule: Nc1ncnc2c1ncn2[C@@H]1O[C@H](COP(=O)(O)OP(=O)(O)OP(=O)(O)O)[C@@H](O)[C@H]1O [ATP, adenosine triphosphate]
allosteric effector: inhibitory (-) or stimulatory (+) [9]: +
allosteric effector: inhibitory (-) or stimulatory (+) (glutamate dehydrogenase): -
allosteric effector: inhibitory (-) or stimulatory (+) (phosphofructokinase): -
allosteric effector: inhibitory (-) or stimulatory (+) (phosphorylase b): -

Molecule: CC(C)[C@H](N)C(=O)O [L-valine]
allosteric effector: inhibitory (-) or stimulatory (+) [7]: +
allosteric effector: inhibitory (-) or stimulatory (+) (acetolactate synthetase): +

Molecule: CN(C(=O)Oc1cccc([N+](C)(C)C)c1)c1ccc(N)cc1 [N-methyl-N-(p-aminophenyl) carbamate ester of m-(trimethylamino) phenol]
inhibition of acetylcholinesterase (in words) (acetylcholinesterase): inhibited

Molecule: NS(=O)(=O)c1nnc(NC(=O)CCCCCNc2ccc([N+](=O)[O-])cc2[N+](=O)[O-])s1 [DNP-Modulator Conjugate, 6-(2,4-Dinitroanilino)-N-(5-sulfonamide-1,3,4-thiadiazo-2-yl) caproamide]
Rate of Hydrolysis (carbonic anhydrase [11]; DNP-modulator conjugate 0.278 μM with antibody to DNP 100 .infin.l/ml, mixture 2): 0.108 Increase in Absorbance per min at 348 nm
Rate of Hydrolysis (carbonic anhydrase [11]; DNP-modulator conjugate 0.278 μM, N-DNP-6-aminocaproate 1.8 μM, antibody to DNP 100 .infin.l/ml, mixture 7): 0.098 Increase in Absorbance per min at 348 nm
Rate of Hydrolysis (carbonic anhydrase [11]; DNP-modulator conjugate 0.278 μM, no antibody, mixture 4): 0.074 Increase in Absorbance per min at 348 nm
effect on the carbonic anhydrase reaction (in words) (carbonic anhydrase [11]): inhibited the carbonic anhydrase reaction
effect of antibody to DNP on inhibition (in words) (carbonic anhydrase [11]): degree of inhibition being decreased by the presence of antibody to DNP

Molecule: CSCC[C@H](N)C(=O)O [methionine]
allosteric effector: inhibitory (-) or stimulatory (+) (glutamate dehydrogenase): +

Molecule: NC(=O)C1=CN([C@@H]2O[C@H](COP(=O)(O)OP(=O)(O)OC[C@H]3O[C@@H](n4cnc5c(N)ncnc54)[C@H](O)[C@@H]3O)[C@@H](O)[C@H]2O)C=CC1 [reduced NAD]
allosteric effector: inhibitory (-) or stimulatory (+) (glutamate dehydrogenase): -

Molecule: CSCC[C@H](N)C(=O)O [L-methionine]
allosteric effector: inhibitory (-) or stimulatory (+) (homoserine dehydrogenase [8]): +

Molecule: Clc1nc(Cl)c2[nH]c(Cl)nc2n1 [2,6,8-trichloropurine, 2,6,8-Trichloropurine]
Ki (uricase): ~1000 nM

Molecule: O=C(O)CCCCCNc1ccc([N+](=O)[O-])cc1[N+](=O)[O-] [N-DNP-6-aminocaproate]
Rate of Hydrolysis (carbonic anhydrase [11]; N-DNP-6-aminocaproate 1.8 μM alone, no antibody, mixture 6): 0.154 Increase in Absorbance per min at 348 nm
effect on the carbonic anhydrase reaction (in words) (carbonic anhydrase [11]): no substantial effect on the carbonic anhydrase reaction
effect of DNP derivative on inhibition by DNP-modulator conjugate (in words) (carbonic anhydrase [11]; mixtures 2 and 7, antibody to DNP present): increased inhibition of the carbonic anhydrase reaction by the DNP-modulator conjugate

Molecule: CC(=O)N[C@H]1[C@@H](OP(=O)(O)OP(=O)(O)OC[C@H]2O[C@@H](n3ccc(=O)[nH]c3=O)[C@H](O)[C@@H]2O)O[C@H](CO)[C@@H](O)[C@@H]1O [uridine diphosphate (UDP)-N-acetyl-glucosamine]
allosteric effector: inhibitory (-) or stimulatory (+) [13]: -

Molecule: N[C@@H](Cc1cc(I)c(Oc2cc(I)c(O)c(I)c2)c(I)c1)C(=O)O [thyroxine]
allosteric effector: inhibitory (-) or stimulatory (+) (glutamate dehydrogenase): -
